How the values were obtained:
Format in all cases: cell-based
[1] = system: SUM159, MCF-7 and MDA-MB-453 cells; assay: Soft agar colony formation assay, breast cancer cell lines; settings: 1.25, 2.5 or 5 μM, 1 month culture
Description: With reference to FIGS. 23A-23D, soft agar colony formation assays were also performed. Initially, 1000 SUM159 or MCF-7 cells, 10000 MDA-MB-453 cells were seeded into the upper agar of each dish; meanwhile, vehicle control (DMSO) or lomitapide (final concentration: 1.25, 2.5 or 5 μM) were added into the upper agar of corresponding dishes. After 1 month continuous culture, the final colonies formed in the agar were fixed by methanol and stained with crystal violet. FIG. 23A includes representative soft agar images from each treatment groups. FIGS. 23B-23D include the quantitation of soft agar clone numbers (mean standard deviation, n=3). * p<0.05, compared to vehicle control (negative control) treatment group.

[2] = system: SUM19, MCF-7, MDA-MB-453 and 4T1luc cells; assay: Suspension culture sphere formation assay, breast cancer cells; settings: 1.25, 2.5 or 5 μM, 10 days
Description: With reference to FIGS. 24A and 24B, the effect of lomitapide treatment on cancer stem cell-like property of breast cancer cells was further studied. Initially, 2500 breast cancer SUM19, MCF-7, MDA-MB-453 or 4T1^luc cells were seeded into […] 24-well plates; meanwhile, vehicle control (DMSO) or lomitapide (final concentration: 1.25, 2.5 or 5 μM) were added into corresponding wells. After 10-days continuous culture, the final spheres formed were imaged and counted under an inverted phase-contrast microscope. FIG. 24A includes representative sphere images from each treatment groups. FIG. 24B includes the quantitation of sphere numbers (mean±standard deviation, n=3). * p<0.05, compared to vehicle control (negative control) treatment group.

[3] = system: MCF-7, LM2 and 4T1luc cells; assay: Apoptosis (7-AAD/APC-annexin V flow cytometry), breast cancer cells; settings: 1.25, 2.5 or 5 μM, 48 h
Description: (§1) With reference to FIGS. 26A-26C, studies were also conducted to determine the effect of lomitapide treatment on apoptosis of breast cancer cells. Initially, 0.1-0.3 million MCF-7, LM2 or 4T1^luc cells were seeded into 6 cm cell culture dishes and cultured overnight. Vehicle control (DMSO) or lomitapide (final concentration: 1.25, 2.5 or 5 μM) was added then into corresponding dishes. After 48 h incubation, the cells were harvested, stained by 7-AAD/APC-annixin V and analyzed by flow cytometry. The results are presented as mean±standard deviation (n=3). * p<0.05, compared to vehicle control (negative control) treatment group.

[4] = system: PC9, H1975, PC9GR4, H460 and A549 cells; assay: MTT assay, lung cancer cell lines; settings: 1.25, 2.5 and 5 μM; 24, 48, 72 h
Description: FIGS. 27A-27E include the results of studies to determine the effect of lomitapide treatment on lung cancer cell growth of various cell lines as determined by MTT assay. Initially, 1000 PC9, H1975, PC9GR4, H460, or A549 cells were seeded into 96-well plates. After overnight culture, vehicle (DMSO) or lomitapide (final concentration: 1.25, 2.5 and 5 μM) were added into the corresponding wells. After 24 h, 48 h and 72 h incubation, the culture media were aspirated off and 50 μL of 0.5 mg/mL of MTT containing medium was added into each well. After 3h incubation, 200 μl of DMSO were added into each well. The OD value of each well was read under the wavelength of 570 nm. The results are presented as mean±standard deviation (n=6) * p<0.05, compared to vehicle control (negative control) treatment group.

[5] = system: PC9GR4 and A549 cells; assay: Apoptosis (7-AAD/APC-annexin V flow cytometry), lung cancer cells; settings: 1.25, 2.5 or 5 μM, 48 h
Description: as §1, with “29A and 29B,” for “26A-26C,”, “lung” for “breast”, “PC9GR4” for “MCF-7, LM2”, “A549” for “4T1^luc”

[6] = system: HCT116, HT29, DLD1, PT130 and SW480 cells; assay: MTT assay, colon cancer cell lines; settings: 1.25, 2.5 and 5 μM; 24, 48, 72 h
Description: With reference to FIGS. 31A-31F, studies were conducted to determine the effect of lomitapide treatment on colon cancer cell growth as determined by the MTT assay. Initially, 1000 HCT116, HT29, DLD1, PT130, or SW480 cells were seeded into 96-well plates. After overnight culture, vehicle (DMSO) or lomitapide (final concentration: 1.25, 2.5 and 5 μM) were added into the corresponding wells. After 24 h, 48 h and 72 h incubation, the culture media were aspirated off and 50 μL of 0.5 mg/mL of MTT containing medium was added into each well. After 3h incubation, 200 μL of DMSO were added into each well. The OD value of each well was read under the wavelength of 570 nm. The results are presented as mean±standard deviation (n=6) * p<0.05, compared to vehicle control (negative control) treatment group.

[7] = system: DLD1, PT130 and SW480 cells; assay: Clonogenic assay, colon cancer cell lines; settings: 1.25, 2.5 or 5 μM for 72 h, then 10 days culture
Description: Initially, 100 DLD1, PT130 or SW480 cells were seeded into 6-cm cell culture dishes. After overnight culture, vehicle control (DMSO) or lomitapide (final concentration: 1.25, 2.5 or 5 μM) were added into the corresponding dishes. After 72 h culture, the DMSO- or lomitapide-containing media were removed and the fresh culture media were added in followed by additional 10 days culture. The culture media were replaced with fresh media every three days. At the end of cell culture, the final clones in dishes were fixed by 4% paraformaldehyde and stained with crystal violet. FIG. 32A includes representative images from each treatment groups. FIGS. 32B-32D include quantitation of clone numbers (mean±standard deviation, n=3). * p<0.05, compared to vehicle control (negative control) treatment group.

**Q.** How did the “breast cancer cell growth (soft agar clone numbers)” value [1] turn out when lomitapide was run?
**A.** Its value is “significantly reduces breast cancer cell growth”.

**Q.** And the “cancer stem cell-like property (sphere numbers)” value [2]?
**A.** Its value is “significantly reduces cancer stem cell-like property”.

**Q.** What about the apoptosis [3] of the same substance?
**A.** The apoptosis was “induces apoptosis”.

**Q.** What about the “lung cancer cell growth (MTT)” value [4] of the same substance?
**A.** The value was “significantly reduces lung cancer cell growth”.

**Q.** What about the apoptosis [5] of the same substance?
**A.** The apoptosis was “induces apoptosis”.

**Q.** What about the “colon cancer cell growth (MTT)” value [6] of the same substance?
**A.** The value was “significantly reduces colon cancer cell growth”.

**Q.** What about the “colon cancer cell growth (clone numbers)” value [7] of the same substance?
**A.** The value was “significantly reduces colon cancer cell growth”.
